We go through six molecules from ChEMBL document CHEMBL5126567, “Synthesis of novel immunomodulatory 1,4-disubstituted bis-1,2,3-triazoles by using click chemistry and their intracellular mechanism of action” (Bioorg Med Chem Lett, 2022).

The structures appear in SMILES notation. Active and inactive are the calls of the source. No cut-off for these calls is given here.

Data set [1] deals with J774.2. Kind of data set: Cytotoxicity against mouse J774.2 cells assessed as cell viability. The data set is classed as toxicity, cell-based.
The test system of data set [2] is J774.2. Description: Antiinflammatory activity in LPS-induced mouse J774.2 cells assessed as decrease in TNF-alpha level at 1 to 10 ug/mL measured after 24 hrs by ELISA. The data set is classed as functional, cell-based. As to conditions: dose 1-10 µg/ml. (In an ELISA, binding on a coated surface is turned into a signal by an enzyme label.)
For data set [3], the system named is J774.2. Description: Antiinflammatory activity in LPS-induced mouse J774.2 cells assessed as decrease in GMCSF level at 1 to 10 ug/mL measured after 24 hrs by ELISA. To be noted: dose 1-10 µg/ml. The data set is classed as functional, cell-based.
Data set [4] deals with J774.2. Kind of data set: Inhibition of PI3K/AKT signalling pathway in LPS-induced mouse J774.2 cells assessed as decrease in phosphorylated PI3K level at 10 ug/mL after 24 hrs by flow cytometry. The data set is classed as cell-based. As to conditions: dose 10.0 µg/ml. A general note: In flow cytometry, cells or beads pass a laser one at a time.
For data set [5], the system named is J774.2. Kind of data set: Antiinflammatory activity in LPS-induced mouse J774.2 cells assessed as decrease in IL6 level at 1 to 10 ug/mL measured after 24 hrs by ELISA. The data set is classed as functional, cell-based. As to conditions: dose 1-10 µg/ml.

Turning to `O=C(Cn1cc(C2CC2)nn1)Nc1ccccc1NC(=O)Cn1cc(C2CC2)nn1`, in the data set on J774.2 [1], the Activity result is on record as “Non-Toxic”. Further, the result in the data set on J774.2 [2], in the data set on J774.2 [3] and in the data set with J774.2 [5] was Active. Further, the inhibition entry in the data set with J774.2 [4] was “Active”.
On to `O=C(Cn1cc(-c2ccccc2)nn1)Nc1ccccc1NC(=O)Cn1cc(-c2ccccc2)nn1`, for which the Activity result in the data set with J774.2 [1] was “Non-Toxic”. Also, the result in the data set on J774.2 [2], in the data set with J774.2 [3] and with J774.2 [5] was Active.
As to `CCOC(=O)c1cn(CC(=O)Nc2ccccc2NC(=O)Cn2cc(C(=O)OCC)nn2)nn1`, in the data set on J774.2 [1], the Activity result is recorded as “Non-Toxic”. The result in the data set on J774.2 [2], with J774.2 [3] and with J774.2 [5] was Active.
On to `O=C(Cn1cc(CC2CCCCC2)nn1)Nc1ccccc1NC(=O)Cn1cc(CC2CCCCC2)nn1`, for which the Activity entry with J774.2 [1] was “Non-Toxic”. Further, the outcome in the data set on J774.2 [2], in the data set with J774.2 [3] and in the data set with J774.2 [5] was Active. The inhibition entry in the data set with J774.2 [4] is “Active”.
For `O=C(Cn1cc(C2CCCC2)nn1)Nc1ccccc1NC(=O)Cn1cc(C2CCCC2)nn1`, the Activity result with J774.2 [1] is given as “Non-Toxic”. Besides, the outcome in the data set on J774.2 [2], in the data set on J774.2 [3] and with J774.2 [5] was Active. In addition, the inhibition result in the data set with J774.2 [4] is “Active”.
For the molecule `CCCC(C)c1cn(CC(=O)Nc2ccccc2NC(=O)Cn2cc(C(C)CCC)nn2)nn1` (stereo not drawn), in the data set on J774.2 [1], the Activity entry is given as “Non-Toxic”. Besides, the outcome in the data set with J774.2 [2], in the data set on J774.2 [3] and in the data set with J774.2 [5] was Active. The inhibition entry in the data set on J774.2 [4] was “Active”.
